Measurements taken from US5463073A, “Thienoimidazole derivatives, their production and use” (Takeda Chemical Industries, Ltd., priority 1990, dated 1995).

Key:
[1] = tested on: A-II-induced pressor action; assay: Inhibitory effect on pressor action of angiotensin II in rats (p.o.); format: in vivo, Jcl: SD rats; settings: Rattus norvegicus, po; 1 mg/kg p.o.; male SD rats; A-II 100 ng/kg i.v.; read-out: Pressor Response (percent inhibition of A-II-induced pressor action)
Excerpt: Inhibitory Effect of the Compound of the Present Invention on Pressor Action of Angiotensin
Jcl: SD rats (9 week old, male) were employed. On the day previous to that of the experiment, these animals were applied with cannulation into the femoral artery and vein under anesthesia with pentobarbital Na. The animals were fasted but allowed to access freely to drinking water until the experiment was started. Just on the day of conducting the experiment, the artery cannula was connected with a blood-pressure transducer, and the average blood pressure was recorded by means of polygraph. Before administration of the drug, the pressor action due to intravenous administration of angiotensin II (A-II) (100 ng/kg) as the control was measured. The drugs were orally administered, then, at each point of the measurement, A-II was administered intravenously, and the pressor action was similarly measured. By comparing the pressor action before and after administration of the drug, the percent inhibition by the drug on A-II-induced pressor action was evaluated.

[2] = molecular target: T1, angiotensin II (A-II) receptor (Bos taurus, UniProt P25104); assay: Inhibition of binding of angiotensin II to angiotensin II receptor (radioreceptor assay, 125I-A-II, bovine adrenal cortex membrane fraction); settings: room temperature, 1 h; for inhibition at 1 µM: 10^-6 M; for inhibition at 0.1 µM: 10^-7 M
T1 construct: membrane fraction was prepared from bovine adrenal cortex; from tissue; host or cells: bovine adrenal cortex membrane fraction
T1 sequence (P25104 1-359): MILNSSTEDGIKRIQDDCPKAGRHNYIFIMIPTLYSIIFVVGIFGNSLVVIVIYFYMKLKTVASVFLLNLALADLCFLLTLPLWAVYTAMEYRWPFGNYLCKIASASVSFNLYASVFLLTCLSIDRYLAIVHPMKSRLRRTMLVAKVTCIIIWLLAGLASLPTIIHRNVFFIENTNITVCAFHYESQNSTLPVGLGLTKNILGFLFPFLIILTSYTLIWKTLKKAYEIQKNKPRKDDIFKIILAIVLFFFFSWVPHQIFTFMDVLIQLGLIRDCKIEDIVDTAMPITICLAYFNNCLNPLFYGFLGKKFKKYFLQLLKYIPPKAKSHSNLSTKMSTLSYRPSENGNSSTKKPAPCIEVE
Description: Inhibitory Effect of Binding of Angiotensin-II to Angiotensin Receptor
An experiment of inhibition on the binding of angiotensin II (A-II) receptor was conducted by modifying the method of Douglas et al. [Endocrinology, 102, 685-696 (1978)]. An A-II receptor membrane fraction was prepared from bovine adrenal cortex.
The compound of the present invention (10^-6 M or 10^-7 M) and^125 I-angiotensin II (^125 I-A-II) (1.85 kBq/50 μl) were added to the receptor membrane fraction, and the mixture was incubated at room temperature for one hour. The receptor-bound and free ^125 I-A-II were separated through a filter (Whatman GF/B filter), and the radioactivity of ^125 I-A-II bound to the receptor was measured.

SMILES | inhibition in vivo at 1 mg/kg [1] [%] | inhibition at 1 µM [2] [%] | inhibition at 0.1 µM [2] [%]
CSc1nc2c(C)sc(C(=O)O)c2n1Cc1ccc(-c2ccccc2-c2nn[nH]n2)cc1 [Working Example 15] | ≥ 70 | 50 | 14
Cc1sc(C(=O)O)c2c1nc(SC(C)C)n2Cc1ccc(-c2ccccc2-c2nnn[nH]2)cc1 [Working Example 17, 2-Isopropylthio-4-methyl-1-[[2'-(1H-tetrazol-5-yl]-biphenyl-4-yl]methyl]thieno[3,4-d]imidazole-6-carboxylic acid] | ≥ 70 | 64 | 26
CCCCSc1nc2c(C)sc(C(=O)O)c2n1Cc1ccc(-c2ccccc2-c2nn[nH]n2)cc1 [Working Example 18, 2-Butylthio-4-methyl-1-[[2',(1H-tetrazol-5-yl)biphenyl-4-yl]methyl]thieno[3,4-d]imidazole-6-carboxylic acid] | 30 to 50 | 66 | 33
CCSc1nc2csc(C(=O)O)c2n1Cc1ccc(-c2ccccc2-c2nnn[nH]2)cc1 [Working Example 22, 2-Ethylthio-1-[[2'-(1H-tetrazol-5-yl)biphenyl-4-yl]methyl]thieno[3,4-d]imidazole-6-carboxylic acid] | 50 to 70 | 84 | 45
CCSc1nc2c(C)sc(C(=O)OC)c2n1Cc1ccc(-c2ccccc2-c2nn[nH]n2)cc1 [compound 1] | 30 to 50 | 91 | 68
CCSc1nc2c(C)sc(C(=O)O)c2n1Cc1ccc(-c2ccccc2-c2nn[nH]n2)cc1 [compound 2] | ≥ 70 | 64 | 18
CCSc1nc2c(C)sc(C(=O)OCOC(=O)C(C)(C)C)c2n1Cc1ccc(-c2ccccc2-c2nn[nH]n2)cc1 [compound 5] | ≥ 70 | 89 | 59
CCSc1nc2c(C)sc(C(=O)OC(C)OC(=O)OC3CCCCC3)c2n1Cc1ccc(-c2ccccc2-c2nn[nH]n2)cc1 (stereo not drawn) [compound 6] | ≥ 70 | 84 | 46
COC(=O)c1sc(C)c2nc(SC)n(Cc3ccc(-c4ccccc4-c4nn[nH]n4)cc3)c12 [compound 7] | 30 to 50 | 77 | 55
COc1nc2c(C)sc(C(=O)O)c2n1Cc1ccc(-c2ccccc2-c2nn[nH]n2)cc1 [compound 28] | ≥ 70 | 65 | 19
CCOc1nc2c(C)sc(C(=O)O)c2n1Cc1ccc(-c2ccccc2-c2nn[nH]n2)cc1 [compound 29] | – | 67 | 39
CCCOc1nc2c(C)sc(C(=O)O)c2n1Cc1ccc(-c2ccccc2-c2nn[nH]n2)cc1 [compound 30] | – | 72 | 33
CCNc1nc2c(C)sc(C(=O)O)c2n1Cc1ccc(-c2ccccc2-c2nn[nH]n2)cc1 [compound 31] | – | 75 | 26
COc1nc2c(C)sc(C(=O)OCOC(C)=O)c2n1Cc1ccc(-c2ccccc2-c2nn[nH]n2)cc1 [compound 36] | ≥ 70 | 92 | 73
